In experiment [1] the test system is spindle assembly checkpoint. The experiment is described as follows: SAC-Formation - Nocodazole-Induced Assay. The class given is cell-based. As to conditions: Homo sapiens; HeLa cells, nocodazole 0.1 μg/ml, 24 h, phosphorylated histone H3 on serine 10. The gist of the method:
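HeLa cells were given nocodazole at 0.1 μg/ml final together with compounds (0.005–20 μM, 0.5% DMSO) for 24 h at 37° C. Mitotic cells were counted by phospho-histone H3 Ser10 immunostaining, with cell number from HOECHST 33342, by high-content imaging. The loss of mitotic cells was fitted with a four-parameter Hill equation.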

Experiment [2] deals with human Bub1 (Homo sapiens (Human), UniProt O43683). The experiment is described as follows: Bub1 kinase assay (TR-FRET). The class given is biochemical. The following applies: 10 μM ATP; read-out: Bub1 avg (IC50 [mol/l]). The source says:
Bub1-inhibitory activity of compounds of the present invention was quantified employing the Bub1 TR-FRET assay as described in the following paragraphs.
N-terminally His6-tagged recombinant catalytic domain of human Bub1 (amino acids 704-1085), expressed in insect cells (Hi5) and purified by Ni-NTA affinity chromatography and subsequent size exclusion chromatography, was used as enzyme. As substrate for the kinase reaction the biotinylated peptide biotin-Ahx-VLLPKKSFAEPG (C-terminus in amid form) was used which can be purchased e.g. form the company Biosyntan (Berlin, Germany).
For the assay 50 nl of a 100 fold concentrated solution of the test compound in DMSO was pipetted into a black low volume 384 well microtiter plate (Greiner Bio-One, Frickenhausen, Germany), 2 μl of a solution of Bub1 in aqueous assay buffer [50 mM Tris/HCl pH 7.5, 10 mM magnesium chloride (MgCl2), 200 mM potassium chloride (KCl), 1.0 mM dithiothreitol (DTT), 0.1 mM sodium ortho-vanadate, 1% (v/v) glycerol, 0.01% (w/v) bovine serum albumine (BSA), 0.005% (v/v) Trition X-100 (Sigma), 1× Complete EDTA-free protease inhibitor mixture (Roche)] were added and the mixture was incubated for 15 min at 22° C. to allow pre-binding of the test compounds to the enzyme before the start of the kinase reaction. Then the kinase reaction was started by the addition of 3 μl of a solution of adenosine-tri-phosphate (ATP, 16.7 μM=>final conc. in the 5 μl assay volume is 10 μM) and substrate (1.67 μM=>final conc. in the 5 μl assay volume is 1 μM) in assay buffer and the resulting mixture was incubated for a reaction time of 60 min at 22° C. The concentration of Bub1 was adjusted depending of the activity of the enzyme lot and was chosen appropriate to have the assay in the linear range, typical concentrations were in the range of 200 ng/ml. The reaction was stopped by the addition of 5 μl of a solution of TR-FRET detection reagents (0.2 μM streptavidine-XL665 [Cisbio Bioassays, Codolet, France] and 1 nM anti-phosho-Serine antibody [Merck Millipore, cat. #35-001] and 0.4 nM LANCE EU-W1024 labeled anti-mouse IgG antibody [Perkin-Elmer, product no. AD0077, as an alternative a Terbium-cryptate-labeled anti-mouse IgG antibody from Cisbio Bioassays can be used]) in an aqueous EDTA-solution (50 mM EDTA, 0.2% (w/v) bovine serum albumin in 100 mM HEPES pH 7.5).
The resulting mixture was incubated 1 h at 22° C. to allow the formation of complex between the phosphorylated biotinylated peptide and the detection reagents. Subsequently the amount of phosphorylated substrate was evaluated by measurement of the resonance energy transfer from the Eu-chelate to the streptavidine-XL. Therefore, the fluorescence emissions at 620 nm and 665 nm after excitation at 350 nm was measured in a TR-FRET reader, e.g. a Rubystar or Pherastar (both from BMG Labtechnologies, Offenburg, Germany) or a Viewlux (Perkin-Elmer). The ratio of the emissions at 665 nm and at […] was taken as the measure for the amount of phosphorylated substrate. The data were normalised (enzyme reaction without inhibitor=0% inhibition, all other assay components but no enzyme=100% inhibition).

Bounds are passed on as bounds.

Sequence of human Bub1 (O43683 704-1085): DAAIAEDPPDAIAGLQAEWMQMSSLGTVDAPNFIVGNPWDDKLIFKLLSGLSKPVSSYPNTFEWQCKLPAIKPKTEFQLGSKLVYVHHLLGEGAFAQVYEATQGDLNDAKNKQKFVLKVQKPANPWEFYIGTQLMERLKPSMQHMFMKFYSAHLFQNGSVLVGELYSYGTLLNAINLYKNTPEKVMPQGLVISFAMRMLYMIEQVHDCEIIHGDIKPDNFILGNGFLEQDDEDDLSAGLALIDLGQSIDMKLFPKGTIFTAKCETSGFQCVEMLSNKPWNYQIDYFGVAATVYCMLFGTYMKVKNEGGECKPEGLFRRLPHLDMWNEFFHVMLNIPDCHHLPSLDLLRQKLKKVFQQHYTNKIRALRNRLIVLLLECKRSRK

On to `CCc1ccccc1NC(=O)c1c(C)nsc1Nc1cnc2ccc(Cl)cc2n1` [Example 41, 5-[(7-Chloroquinoxalin-2-yl)amino]-N-(2-ethylphenyl)-3-methyl-1,2-thiazole-4-carboxamide], for which the IC50 was 160 nM in experiment [1] and over 20 µM in experiment [2].

For `COc1ccc(NC(=O)c2c(C)nsc2Nc2cnc3ccc(Cl)cc3n2)cn1` [Example 42, 5-[(7-Chloroquinoxalin-2-yl)amino]-N-(6-methoxypyridin-3-yl)-3-methyl-1,2-thiazole-4-carboxamide], the figures for the IC50 in experiment [1] and in experiment [2] were 260 nM and over 20 µM, respectively.

In the case of `COc1ccc(NC(=O)c2c(C)nsc2Nc2cnc3c(F)c(F)ccc3n2)cn1` [Example 43, 5-[(5,6-Difluoroquinoxalin-2-yl)amino]-N-(6-methoxypyridin-3-yl)-3-methyl-1,2-thiazole-4-carboxamide], the IC50 in experiment [1] was 34 nM; in experiment [2], over 20 µM.

For the molecule `COc1ccc(NC(=O)c2c(C)nsc2Nc2cnc3ccc(F)cc3n2)cn1` [Example 44, 5-[(7-Fluoroquinoxalin-2-yl)amino]-N-(6-methoxypyridin-3-yl)-3-methyl-1,2-thiazole-4-carboxamide], the IC50 in experiment [1] is 200 nM; in experiment [2], over 20 µM.

With `COc1ccc(NC(=O)c2c(C)nsc2Nc2cnc3cc(C(F)(F)F)ccc3n2)cn1` [Example 45, N-(6-Methoxypyridin-3-yl)-3-methyl-5-{[6-(trifluoromethyl)quinoxalin-2-yl]amino}-1,2-thiazole-4-carboxamide], the IC50 in experiment [1] was 54 nM; in experiment [2] it was over 20 µM.

`Cc1nsc(Nc2cnc3cc(F)ccc3n2)c1C(=O)Nc1ccc(F)c(F)c1` [Example 46, N-(3,4-Difluorophenyl)-5-[(6-fluoroquinoxalin-2-yl)amino]-3-methyl-1,2-thiazole-4-carboxamide]: the IC50 is 61 nM in experiment [1] and over 20 µM in experiment [2].

On to `COc1ccc(NC(=O)c2c(C)nsc2Nc2nc3c(C(F)(F)F)cccc3s2)cc1F` [Example 47, N-(3-Fluoro-4-methoxyphenyl)-3-methyl-5-{[4-(trifluoromethyl)-1,3-benzothiazol-2-yl]amino}-1,2-thiazole-4-carboxamide], for which the IC50 is 92 nM in experiment [1] and over 20 µM in experiment [2].

Turning to `COc1ccc(NC(=O)c2c(C)nsc2Nc2nc3c(C(F)(F)F)cccc3s2)cn1` [Example 48, N-(6-Methoxypyridin-3-yl)-3-methyl-5-{[4-(trifluoromethyl)-1,3-benzothiazol-2-yl]-amino}-1,2-thiazole-4-carboxamide], the values for the IC50 in experiment [1] and in experiment [2] were 130 nM and over 20 µM, respectively.

Regarding `Cc1nsc(Nc2ncc(C(=O)N(C)C)s2)c1C(=O)Nc1ccc(F)c(F)c1` [Example 49, N-(3,4-Difluorophenyl)-5-{[5-(dimethylcarbamoyl)-1,3-thiazol-2-yl]amino}-3-methyl-1,2-thiazole-4-carboxamide], the IC50 was 350 nM in experiment [1] and over 20 µM in experiment [2].

Regarding `Cc1nsc(Nc2cnc3ccccc3n2)c1C(=O)Nc1ccc(F)c(F)c1` [Example 50, N-(3,4-Difluorophenyl)-3-methyl-5-(quinoxalin-2-ylamino)-1,2-thiazole-4-carboxamide], the values for the IC50 in experiment [1] and in experiment [2] were 56 nM and over 20 µM, respectively.

For `Cc1nsc(Nc2nc3c(C(F)(F)F)cccc3s2)c1C(=O)Nc1ccc(F)c(F)c1` [Example 51, N-(3,4-Difluorophenyl)-3-methyl-5-{[4-(trifluoromethyl)-1,3-benzothiazol-2-yl]-amino}-1,2-thiazole-4-carboxamide], the IC50 in experiment [1] was 39 nM; in experiment [2], over 20 µM.

Take `Cc1nsc(Nc2ccc(C#N)cn2)c1C(=O)Nc1ccc(Cl)c(F)c1` [Example 52, N-(4-Chloro-3-fluorophenyl)-5-[(5-cyanopyridin-2-yl)amino]-3-methyl-1,2-thiazole-4-carboxamide]: the IC50 in experiment [1] was 34 nM; in experiment [2], over 20 µM.

With `Cc1nsc(Nc2nc3c(C(F)(F)F)cccc3s2)c1C(=O)Nc1ccc(Cl)c(F)c1` [Example 53, N-(4-Chloro-3-fluorophenyl)-3-methyl-5-{[4-(trifluoromethyl)-1,3-benzothiazol-2-yl]amino}-1,2-thiazole-4-carboxamide], the IC50 in experiment [1] is 340 nM; in experiment [2], over 20 µM.

As to `Cc1nsc(Nc2cc(C#N)ccn2)c1C(=O)Nc1ccc(Cl)c(F)c1` [Example 54, N-(4-Chloro-3-fluorophenyl)-5-[(4-cyanopyridin-2-yl)amino]-3-methyl-1,2-thiazole-4-carboxamide], the values for the IC50 in experiment [1] and in experiment [2] were 19 nM and over 20 µM, respectively.

For `CCOC(=O)c1cnn2ccc(Nc3snc(C)c3C(=O)Nc3ccc(F)c(F)c3)nc12` [Example 55, Ethyl 5-({4-[(3,4-difluorophenyl)carbamoyl]-3-methyl-1,2-thiazol-5-yl}amino)-pyrazolo[1,5-a]pyrimidine-3-carboxylate], the IC50 in experiment [1] is 220 nM; in experiment [2], over 20 µM.

As for `Cc1nsc(Nc2cnccn2)c1C(=O)Nc1ccc(Cl)c(F)c1` [Example 56, N-(4-Chloro-3-fluorophenyl)-3-methyl-5-(pyrazin-2-ylamino)-1,2-thiazole-4-carboxamide], the IC50 in experiment [1] was 67 nM; in experiment [2], over 20 µM.

`Cc1nsc(Nc2ccn3nccc3n2)c1C(=O)Nc1ccc(F)c(F)c1` [Example 57, N-(3,4-Difluorophenyl)-3-methyl-5-(pyrazolo[1,5-a]pyrimidin-5-ylamino)-1,2-thiazole-4-carboxamide]: the IC50 in experiment [1] is 520 nM; in experiment [2], over 20 µM.

`CCOC(=O)c1cnc(Nc2snc(C)c2C(=O)Nc2ccc(F)c(F)c2)o1` [Example 96, Ethyl 2-({4-[(3,4-difluorophenyl)carbamoyl]-3-methyl-1,2-thiazol-5-yl}amino)-1,3-oxazole-5-carboxylate]: the results for the IC50 in experiment [1] and in experiment [2] were 1200 nM and over 20 µM, respectively.

`COC(=O)c1cnc(Nc2snc(C)c2C(=O)Nc2ccc(F)c(F)c2)o1` [Example 97, Methyl 2-({4-[(3,4-difluoro-phenyl)carbamoyl]-3-methyl-1,2-thiazol-5-yl}amino)-1,3-oxazole-5-carboxylate]: the IC50 in experiment [1] is 5900 nM; in experiment [2], over 20 µM.

For the molecule `CCOC(=O)c1coc(Nc2snc(C)c2C(=O)Nc2ccc(F)c(F)c2)n1` [Example 98, Ethyl 2-({4-[(3,4-difluoro-phenyl)carbamoyl]-3-methyl-1,2-thiazol-5-yl}amino)-1,3-oxazole-4-carboxylate], the IC50 in experiment [1] was 3000 nM; in experiment [2], over 20 µM.

`CCNC(=O)c1csc(Nc2snc(C)c2C(=O)Nc2ccc(F)c(F)c2)n1` [Example 99, N-(3,4-Difluorophenyl)-5-{[4-(ethylcarbamoyl)-1,3-thiazol-2-yl]amino}-3-methyl-1,2-thiazole-4-carboxamide]: the results for the IC50 in experiment [1] and in experiment [2] were 20000 nM and over 20 µM, respectively.

As to `CCOC(=O)c1coc(Nc2snc(C)c2C(=O)Nc2ccc(OC)nc2)n1` [Example 100, Ethyl 2-({4-[(6-methoxypyridin-3-yl)carbamoyl]-3 methyl-1,2-thiazol-5-yl}amino)-1,3-oxazole-4-carboxylate], the values for the IC50 in experiment [1] and in experiment [2] were 5500 nM and over 20 µM, respectively.

For the molecule `COC(=O)c1cncc(Nc2snc(C)c2C(=O)Nc2ccc(OC)nc2)n1` [Example 101, Methyl 6-({4-[(6-methoxypyridin-3-yl)carbamoyl]-3-methyl-1,2-thiazol-5-yl}amino)pyrazine-2-carboxylate], the IC50 in experiment [1] is 1800 nM; in experiment [2] it was over 20 µM.
